Assays:
Test in all cases: Test for adequate preservation (European Pharmacopea), 1,2-diols and 1,2-diol mixtures in O/W emulsion
Assay type in all cases: cell-based
[1] = test system: Escherichia coli ATCC 8739; details: 3% diol(s) in O/W emulsion
Description: (§1) A test for adequate preservation was carried out in accordance with the European Pharmacopea. The test thus consists of the contamination of the formulation, if possible in its final ratio, with a prescribed inoculum of suitable microorganisms, storage of the inoculated formulation at a specific temperature, taking of samples from the vessel at specific intervals and determination of the number of microorganisms in the samples taken in this way. The preserving properties are adequate if, under the conditions of the test, there is a distinct reduction or optionally no increase in the germ count in the inoculated formulations after the prescribed times at the prescribed temperatures. Experimental details of the test procedure are described in the European Pharmacopea (ISBN 3-7692-2768-9; 2001 supplement to the 3rd Edition, page 421-422, chapter 5.1.3). The initial germ count (CFU/g; “0” value) was in the range of 240,000 to 300,000 in the various test series. For the tests for adequate preservation, (a) potentially synergistically active mixtures taken into account and (b), for comparison purposes, the corresponding unmixed 1,2-diols were incorporated in O/W emulsions. […] The variation in the total concentration of 1,2-diols or 1,2-diol mixtures in the O/W emulsions was compensated for by increasing or reducing the water content, so that otherwise identical formulations always comprised 100 parts by weight in total.

[2] = test system: Pseudomonas aeruginosa ATCC 9027; details: 3% diol(s) in O/W emulsion
Description: as §1

[3] = test system: Candida albicans ATCC 10231; details: 3% diol(s) in O/W emulsion
Description: as §1

[4] = test system: Staphylococcus aureus ATCC 6538; details: 3% diol(s) in O/W emulsion
Description: as §1

[5] = test system: Aspergillus niger ATCC 16404; details: for germ count A. niger: 3% diol(s) in O/W emulsion; for reduction in the number of colony forming units (CFU) to the 0 value: Aspergillus niger, dosage of 3%, 28 days
Description: A test for adequate preservation was carried out in accordance with the European Pharmacopea. The test thus consists of the contamination of the formulation, if possible in its final ratio, with a prescribed inoculum of suitable microorganisms, storage of the inoculated formulation at a specific temperature, taking of samples from the vessel at specific intervals and determination of the number of microorganisms in the samples taken in this way. The preserving properties are adequate if, under the conditions of the test, there is a distinct reduction or optionally no increase in the germ count in the inoculated formulations after the prescribed times at the prescribed temperatures. Experimental details of the test procedure are described in the European Pharmacopea (ISBN 3-7692-2768-9; 2001 supplement to the 3rd Edition, page 421-422, chapter 5.1.3). The initial germ count (CFU/g; “0” value) was in the range of 240,000 to 300,000 in the various test series. For the tests for adequate preservation, (a) potentially synergistically active mixtures taken into account and (b), for comparison purposes, the corresponding unmixed 1,2-diols were incorporated in O/W emulsions. […] The variation in the total concentration of 1,2-diols or 1,2-diol mixtures in the O/W emulsions was compensated for by increasing or reducing the water content, so that otherwise identical formulations always comprised 100 parts by weight in total. […] The Kull equation enables the pure substances and the active compound mixtures prepared therefrom to be compared in respect of their antimicrobial activity. With this equation the so-called synergy index (SI), which is a measure for a synergistic activity, but also for a possible antagonistic activity, of a mixture having an antimicrobial action, is determined. A synergistic effect is evident if the SI value determined is less than 1. On the other hand, if an SI of precisely 1 is calculated, there is a pure additive effect of two substances having an antimicrobial action. In the case of an SI value greater than 1, on the other hand, there is a (frequently undesired) antagonistic effect.

| SMILES | germ count E. coli ([1]; 0′-count (initial germ count)) | germ count E. coli ([1]; 24 h) | germ count E. coli ([1]; 48 h) | germ count E. coli ([1]; 4 d) | germ count E. coli ([1]; 7 d) | germ count E. coli ([1]; 14 d) | germ count E. coli ([1]; 28 d) | germ count Ps. aeruginosa ([2]; 0′-count (initial germ count)) | germ count Ps. aeruginosa ([2]; 24 h) | germ count Ps. aeruginosa ([2]; 7 d) | germ count Ps. aeruginosa ([2]; 14 d) | germ count Ps. aeruginosa ([2]; 28 d) | germ count C. albicans ([3]; 0′-count (initial germ count)) | germ count C. albicans ([3]; 24 h) | germ count C. albicans ([3]; 48 h) | germ count C. albicans ([3]; 4 d) | germ count C. albicans ([3]; 7 d) | germ count C. albicans ([3]; 14 d) | germ count C. albicans ([3]; 28 d) | germ count Staph. aureus ([4]; 0′-count (initial germ count)) | other results |
| --- | --- | --- | --- | --- | --- | --- | --- | --- | --- | --- | --- | --- | --- | --- | --- | --- | --- | --- | --- | --- | --- |
| CCCCCCCCC(O)CO (centres unmarked) [DE 3, 1,2-decanediol] | 350,00 CFU/ml | 0 CFU/ml | 0 CFU/ml | 0 CFU/ml | 0 CFU/ml | 0 CFU/ml | 0 CFU/ml | 360,000 CFU/ml | 2,600 CFU/ml | 20.0 mill | 15.0 mill | 11.8 mill | 320,000 CFU/ml | 3,500 CFU/ml | 0 CFU/ml | 0 CFU/ml | 0 CFU/ml | 0 CFU/ml | 0 CFU/ml | 350,000 CFU/ml | germ count Staph. aureus ([4]; 24 h): 3,200 CFU/ml; germ count Staph. aureus ([4]; 48 h): 0 CFU/ml; germ count Staph. aureus ([4]; 7 d): 0 CFU/ml; germ count Staph. aureus ([4]; 14 d): 0 CFU/ml; germ count Staph. aureus ([4]; 28 d): 0 CFU/ml; germ count A. niger ([5]; 0′-count (initial germ count)): 250,000 CFU/ml; germ count A. niger ([5]; 24 h): 73,000 CFU/ml; germ count A. niger ([5]; 48 h): 160,000 CFU/ml; germ count A. niger ([5]; 4 d): 100,000 CFU/ml; germ count A. niger ([5]; 7 d): 100,000 CFU/ml; germ count A. niger ([5]; 14 d): 73,000 CFU/ml; germ count A. niger ([5]; 28 d): 73,000 CFU/ml; reduction in the number of colony forming units (CFU) to the 0 value [5]: did not enable a reduction in the number of colony forming units (CFU) to the desired 0 value |
| CCCC(O)CO (centres unmarked) [PE3, 1,2-pentanediol] | 300,000 CFU/ml | 300,000 CFU/ml | 145,000 CFU/ml | 100,000 CFU/ml | 40,000 CFU/ml | 500 CFU/ml | 0 CFU/ml | 290,000 CFU/ml | 145,000 CFU/ml | 0 CFU/ml | 0 CFU/ml | 0 CFU/ml | 250,000 CFU/ml | 245,000 CFU/ml | 73,000 CFU/ml | 28,000 CFU/ml | 23,000 CFU/ml | <100 CFU/ml | 0 CFU/ml | 240,000 CFU/ml | germ count Ps. aeruginosa ([2]; 48 h): 12,000 CFU/ml; germ count Ps. aeruginosa ([2]; 4 d): 0 CFU/ml; germ count Staph. aureus ([4]; 24 h): 100,000 CFU/ml; germ count Staph. aureus ([4]; 48 h): 12,000 CFU/ml; germ count Staph. aureus ([4]; 7 d): 0 CFU/ml; germ count Staph. aureus ([4]; 14 d): 0 CFU/ml; germ count Staph. aureus ([4]; 28 d): 0 CFU/ml; germ count A. niger ([5]; 0′-count (initial germ count)): 260,000 CFU/ml; germ count A. niger ([5]; 24 h): 180,000 CFU/ml; germ count A. niger ([5]; 48 h): 180,000 CFU/ml; germ count A. niger ([5]; 4 d): 180,000 CFU/ml; germ count A. niger ([5]; 7 d): 140,000 CFU/ml; germ count A. niger ([5]; 14 d): 140,000 CFU/ml; germ count A. niger ([5]; 28 d): 100,000 CFU/ml; reduction in the number of colony forming units (CFU) to the 0 value [5]: did not enable a reduction in the number of colony forming units (CFU) to the desired 0 value |

— patent US7582681B2, “Synergistic mixtures of 1,2-alkane diols” (Symrise GmbH & Co. KG, priority 2002, dated 2009)
